The values that follow come from ChEMBL document CHEMBL4311941, “Development of Multifunctional Histone Deacetylase 6 Degraders with Potent Antimyeloma Activity” (J Med Chem, 2019).

For the test, the target named is T1, Protein deacetylase HDAC6 (Homo sapiens, UniProt Q9UBN7).
T1 sequence (Q9UBN7 whole entry): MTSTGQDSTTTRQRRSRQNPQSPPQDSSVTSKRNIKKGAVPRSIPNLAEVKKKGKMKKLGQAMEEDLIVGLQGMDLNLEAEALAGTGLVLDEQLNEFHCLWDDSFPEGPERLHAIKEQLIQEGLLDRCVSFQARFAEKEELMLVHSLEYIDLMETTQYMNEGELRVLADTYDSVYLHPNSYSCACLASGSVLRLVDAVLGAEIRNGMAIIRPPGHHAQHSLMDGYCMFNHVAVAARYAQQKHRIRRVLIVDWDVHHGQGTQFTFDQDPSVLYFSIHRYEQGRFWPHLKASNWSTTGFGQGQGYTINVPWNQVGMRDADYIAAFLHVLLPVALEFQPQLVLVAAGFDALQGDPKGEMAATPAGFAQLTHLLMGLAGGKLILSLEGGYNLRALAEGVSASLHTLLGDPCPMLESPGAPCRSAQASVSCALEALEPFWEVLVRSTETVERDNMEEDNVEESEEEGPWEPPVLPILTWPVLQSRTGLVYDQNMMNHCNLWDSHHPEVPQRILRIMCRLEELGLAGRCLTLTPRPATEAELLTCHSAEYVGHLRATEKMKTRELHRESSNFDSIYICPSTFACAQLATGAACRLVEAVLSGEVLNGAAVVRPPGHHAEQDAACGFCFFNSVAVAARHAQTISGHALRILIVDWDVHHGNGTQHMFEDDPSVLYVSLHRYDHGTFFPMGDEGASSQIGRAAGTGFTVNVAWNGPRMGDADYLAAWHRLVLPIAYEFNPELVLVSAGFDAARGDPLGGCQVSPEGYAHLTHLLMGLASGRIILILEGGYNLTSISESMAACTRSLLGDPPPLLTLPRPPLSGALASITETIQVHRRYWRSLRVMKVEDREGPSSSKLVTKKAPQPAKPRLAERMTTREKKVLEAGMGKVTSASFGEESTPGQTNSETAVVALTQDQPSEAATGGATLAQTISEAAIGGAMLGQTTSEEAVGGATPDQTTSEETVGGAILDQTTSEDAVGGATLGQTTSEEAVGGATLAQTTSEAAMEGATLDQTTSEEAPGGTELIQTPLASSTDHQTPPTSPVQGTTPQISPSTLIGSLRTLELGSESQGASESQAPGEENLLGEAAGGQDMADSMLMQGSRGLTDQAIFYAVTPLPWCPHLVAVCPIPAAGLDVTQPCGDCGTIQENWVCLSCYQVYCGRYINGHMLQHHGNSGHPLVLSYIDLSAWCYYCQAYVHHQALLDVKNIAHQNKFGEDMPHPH
The test is described as follows: Inhibition of human N-terminal tagged human HDAC6 expressed in HEK293T/17 using Ac-Gly-Ala-[Ac-Lys]-AMC as substrate preincubated for 10 mins followed by substrate addition and measured after 15 mins by fluorescence assay.

As a reminder, the IC50 is the concentration needed to halve the response being measured. Lower therefore signals inhibition by little substance. The molecule `CCCCN(Cc1ccc(C(=O)NO)cc1)C(=O)Nc1ccc(OCCCCCn2cc(CNc3cccc4c3C(=O)N(C3CCC(=O)NC3=O)C4=O)nn2)cc1` (stereo unspecified) came in with an IC50 of 8.7 nM.
